Legend:
U87MG glioblastoma = test: Sulphorodamine B test at single concentration, U87MG; format: cell-based; settings: Homo sapiens, U-87 MG; 500 nM, 72 h
Procedure: (§1) The antiproliferative activity of novel Hsp90 inhibitors was also evaluated on various cancerous cell lines by means of the sulphorodamine B test (i.e., NCI-H460 non-small cell lung carcinoma, A431 epidermoid, A2780 ovarian, MDA-MB436 triple-negative breast, U87MG glioblastoma, A498 renal, HCT116 colon, MeWo melanoma, MiaPaCa2 pancreas, HeLa cervix uteri, NB4 promyelocytic leukemia). NCI-H460, A431, MDA-MB436, A2780, A498, HeLa, NB4 tumour cells were grown in RPMI 1640 containing 10% fetal bovine serum (i.e., FBS from GIBCO), L-glutamine, and 50 μg/ml gentamycin sulfate.
(§2) MeWo and U87-MG cells were cultured in Eagle's Minimum Essential Medium (i.e., EMEM) containing 10% FBS, L-glutamine, 1 mM sodium pyruvate, 0.1 mM non-essential amino acids, 1.5 g/l sodium bicarbonate, and 50 μg/ml gentamycin sulphate.
(§3) All cell lines were maintained in a 37° C. incubator with saturated humidity and an atmosphere containing 95% air and 5% CO2, and were sub-cultured every 2-3 days. Tumour cells were seeded in 96-well tissue culture plates at approximately 10% confluence and were allowed to attach and recover for 24 h.
(§4) Varying concentrations of the drugs were then added to each well to calculate their IC50 value (the concentration which inhibits the 50% of cell survival). The plates were incubated at 37° C. for 72 h. At the end of the treatment, the plates were washed by remotion of the supernatant and addition of PBS 3 times. 200 μl PBS and 50 μl of cold 80% trichloroacetic acid (TCA) were added. The plates were incubated on ice for at least 1 h. TCA was removed, the plates were washed 3 times by immersion in distilled-water and dried on paper and at 40° C. for […]. Then 200 μl of 0.4% sulphorodamine B in 1% acetic acid were added. The plates were incubated at room temperature for 30 min. Sulphorodamine B was removed, the plates were washed by immersion in 1% acetic acid for 3 times, then they were dried on paper and at 40° C. for 5 min. Then, 200 μl Tris 10 mM were added, the plates were kept under stirring for 20 min. The cell survival was determined as optical density by a Multiskan […] at 540 nm. The amount of cells killed was calculated as the percentage decrease in sulphorodamine B binding compared with control cultures.
(§5) The other cell lines were screened against one single concentration of the various inhibitors (i.e., 500 nM), all experiments being made in octuplicate, following the protocol described at example 35. Since NB4 cell line was grown in suspension, a further step of centrifugation (i.e., 1600 g for 10 min) was added after the 72 hour incubation period.

A2780 ovarian = test: Sulphorodamine B test at single concentration, A2780; format: cell-based; settings: Homo sapiens, 500 nM, 72 h
Procedure: as §1, §3, §4, §5

HeLa cervix uteri = test: Sulphorodamine B test at single concentration, HeLa; format: cell-based; settings: Homo sapiens, 500 nM, 72 h
Procedure: as §1, §3, §4, §5

[1] = system: MDA-MB436 triple-negative breast; test: Sulphorodamine B test at single concentration, MDA-MB436; format: cell-based; settings: Homo sapiens, MDA-MB-436; 500 nM, 72 h
Procedure: as §1, §3, §4, §5

[2] = system: NB4 promyelocytic leukemia; test: Sulphorodamine B test at single concentration, NB4; format: cell-based; settings: 500 nM, 72 h, suspension cells
Procedure: as §1, §3, §4, §5

MeWo melanoma = test: Sulphorodamine B test at single concentration, MeWo; format: cell-based; settings: Homo sapiens, 500 nM, 72 h
Procedure: as §1, §2, §3, §4, §5

Hsp90 = target: T1, Hsp90 (Homo sapiens, UniProt P07900); test: Fluorescence Polarization (FP) binding, GM-BODIPY displacement from Hsp90; settings: GM-BODIPY tracer, 4° C. for 4 hours
T1 construct: purchased Stressgen SPP-776
Summary of the method: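 Hsp90 (125 nM) was mixed with 100 nM GM-BODIPY tracer and serially diluted compounds in HEPES-K buffer (pH 7.3, KCl, MgCl2, Na2MoO4, 0.01% NP40, fresh bovine gamma globulin and 2 mM DTT). Plates were shaken 4 h at 4 °C before FP (mP) reading. IC50 is the concentration displacing 50% of tracer, from nonlinear least-squares fits of triplicate means.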

[3] = system: NCI-H460 non-small cell lung carcinoma; test: Cytotoxicity assay, sulphorodamine B test, NCI-H460; format: cell-based; settings: for IC50: Homo sapiens, NCI-H460, 72 h, sulphorodamine B
Summary of the method: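 NCI-H460 cells grown in RPMI 1640 with 10% FBS, seeded at ~10% confluence and left 24 h before graded compound concentrations were added for 72 h at 37 °C. TCA-fixed cells stained with 0.4% sulphorodamine B; OD 540 nm vs control cultures gave IC50 for 50% inhibition of survival.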

A431 epidermoid = test: Sulphorodamine B test at single concentration, A431; format: cell-based; settings: Homo sapiens, A-431; 500 nM, 72 h
Procedure: as §1, §3, §4, §5

MiaPaCa2 pancreas = test: Sulphorodamine B test at single concentration, MiaPaCa2; format: cell-based; settings: Homo sapiens, MIA PaCa-2; 500 nM, 72 h
Procedure: as §1
MiaPaCa2 cells were cultured in DMEM medium containing 10% FBS, L-glutamine, and 50 μg/ml gentamycin sulfate.
as §3, §4, §5

A498 renal = test: Sulphorodamine B test at single concentration, A498; format: cell-based; settings: Homo sapiens, 500 nM, 72 h
Procedure: as §1, §3, §4, §5

HCT116 colon = test: Sulphorodamine B test at single concentration, HCT116; format: cell-based; settings: Homo sapiens, HCT-116; 500 nM, 72 h
Procedure: as §1
HCT116 cells were cultured in McCoy's medium containing 10% FBS, L-glutamine, and 50 μg/ml gentamycin sulfate.
as §3, §4, §5

**Q.** With `CC(C)c1cc(-n2nnc(C(=O)NC3CCCCC3)c2-c2ccc(CN3CCOCC3)cc2)c(O)cc1O` [Example 29, 1-(2,4-dihydroxy-5-isopropyl-phenyl)-5-(4-morpholin-4-ylmethyl-phenyl)-1H-[1,2,3]triazole-4-carboxylic acid cyclohexylamide] as the compound, how does the inhibition at 0.5 µM (U87MG glioblastoma) read?
**A.** Its inhibition at 0.5 µM is ≥ 50%.

**Q.** And the inhibition at 0.5 µM (A2780 ovarian)?
**A.** The inhibition at 0.5 µM was ≥ 50%.

**Q.** And the inhibition at 0.5 µM (HeLa cervix uteri)?
**A.** Its inhibition at 0.5 µM is ≥ 50%.

**Q.** What about the inhibition at 0.5 µM [1] of the same compound?
**A.** Its inhibition at 0.5 µM is ≥ 50%.

**Q.** And the inhibition at 0.5 µM [2]?
**A.** Its inhibition at 0.5 µM is ≥ 50%.

**Q.** What about the inhibition at 0.5 µM (MeWo melanoma) of the same compound?
**A.** The inhibition at 0.5 µM was ≥ 50%.

**Q.** And the IC50 (Hsp90)?
**A.** Its IC50 is 50 to 100 nM.

**Q.** And the IC50 [3]?
**A.** The IC50 was < 50 nM.

**Q.** And the inhibition at 0.5 µM (A431 epidermoid)?
**A.** The inhibition at 0.5 µM was ≥ 50%.

**Q.** What about the inhibition at 0.5 µM (MiaPaCa2 pancreas) of the same compound?
**A.** Its inhibition at 0.5 µM is ≥ 50%.

**Q.** And the inhibition at 0.5 µM (A498 renal)?
**A.** The inhibition at 0.5 µM was ≥ 50%.

**Q.** And the inhibition at 0.5 µM (HCT116 colon)?
**A.** The inhibition at 0.5 µM was ≥ 50%.

**Q.** Which inhibition at 0.5 µM (U87MG glioblastoma) does the source give for `CCOC(=O)c1nnn(-c2cc(Cl)c(O)cc2O)c1-c1ccc(F)cc1` [Example 32, 1-(5-chloro-2,4-dihydroxy-phenyl)-5-(4-fluoro-phenyl)-1H-[1,2,3]triazole-4-carboxylic acid ethyl ester, reference compound] here?
**A.** Its inhibition at 0.5 µM is < 30%.

**Q.** What about the inhibition at 0.5 µM (A2780 ovarian) of the same compound?
**A.** Its inhibition at 0.5 µM is < 30%.

**Q.** And the inhibition at 0.5 µM (HeLa cervix uteri)?
**A.** Its inhibition at 0.5 µM is < 30%.

**Q.** And the inhibition at 0.5 µM [1]?
**A.** The inhibition at 0.5 µM was < 30%.

**Q.** What about the inhibition at 0.5 µM [2] of the same compound?
**A.** The inhibition at 0.5 µM was 30 to 50%.

**Q.** And the inhibition at 0.5 µM (MeWo melanoma)?
**A.** The inhibition at 0.5 µM was < 30%.

**Q.** What about the IC50 (Hsp90) of the same compound?
**A.** Its IC50 is > 500 nM.

**Q.** What about the “cytotoxic activity against NCI-H460 NSCLC (in words)” value [3] of the same compound?
**A.** Its value is “totally deprived of any interesting biological activity”.

**Q.** What about the IC50 [3] of the same compound?
**A.** The IC50 was > 1000 nM.

**Q.** And the inhibition at 0.5 µM (A431 epidermoid)?
**A.** Its inhibition at 0.5 µM is < 30%.

**Q.** What about the inhibition at 0.5 µM (MiaPaCa2 pancreas) of the same compound?
**A.** Its inhibition at 0.5 µM is < 30%.

**Q.** What about the inhibition at 0.5 µM (A498 renal) of the same compound?
**A.** The inhibition at 0.5 µM was < 30%.

**Q.** And the inhibition at 0.5 µM (HCT116 colon)?
**A.** Its inhibition at 0.5 µM is < 30%.

**Q.** How did the inhibition at 0.5 µM (U87MG glioblastoma) turn out when `Oc1cc(O)c(-n2nncc2-c2ccc(F)cc2)cc1Cl` [Example 33, 4-chloro-6-[5-(4-fluoro-phenyl)-[1,2,3]triazol-1-yl]-benzene-1,3-diol, reference compound] was run?
**A.** Its inhibition at 0.5 µM is < 30%.

**Q.** And the inhibition at 0.5 µM (A2780 ovarian)?
**A.** The inhibition at 0.5 µM was < 30%.

**Q.** And the inhibition at 0.5 µM (HeLa cervix uteri)?
**A.** The inhibition at 0.5 µM was < 30%.

**Q.** And the inhibition at 0.5 µM [1]?
**A.** The inhibition at 0.5 µM was < 30%.

**Q.** What about the inhibition at 0.5 µM [2] of the same compound?
**A.** Its inhibition at 0.5 µM is < 30%.

**Q.** What about the inhibition at 0.5 µM (MeWo melanoma) of the same compound?
**A.** Its inhibition at 0.5 µM is < 30%.

**Q.** And the IC50 (Hsp90)?
**A.** The IC50 was > 500 nM.

**Q.** What about the “cytotoxic activity against NCI-H460 NSCLC (in words)” value [3] of the same compound?
**A.** The value was “totally deprived of any interesting biological activity”.

**Q.** What about the IC50 [3] of the same compound?
**A.** Its IC50 is > 1000 nM.

**Q.** What about the inhibition at 0.5 µM (A431 epidermoid) of the same compound?
**A.** The inhibition at 0.5 µM was < 30%.

**Q.** And the inhibition at 0.5 µM (MiaPaCa2 pancreas)?
**A.** The inhibition at 0.5 µM was < 30%.

**Q.** And the inhibition at 0.5 µM (A498 renal)?
**A.** The inhibition at 0.5 µM was < 30%.

**Q.** And the inhibition at 0.5 µM (HCT116 colon)?
**A.** The inhibition at 0.5 µM was < 30%.

Reference: patent US9302998B2, “Aryl triazole compounds with antitumoural activity” (SIGMA-TAU RESEARCH SWITZERLAND S.A., priority 2010, dated 2016)
